pIC50: −log10 of the molar value.
system: M-NFS-60 cells; experiment: M-NFS-60 cell in vitro assay (CCK, 48 h, M-CSF factor medium); assay type: cell-based; conditions: M-NFS-60 cells; read-out: M-NFS-60cellassay IC50
Outline: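 IC50 values were fitted from CCK absorbance (450 nm, 2 h development) after 48 h compound treatment. Cells: M-NFS-60, seeded 2000/well and rested 4 h, grown in medium carrying 25 ng/ml M-CSF factor plus 10% serum; compounds serially diluted in DMSO.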

Q: Cn1cc(-c2cncc(N[C@H]3CCc4c(Nc5nnc(C(C)(C)C)o5)cccc43)c2)cn1 [Compound 42l] was tested. Which pIC50 did it give?
A: The pIC50 was < 6.30.

Q: How did the pIC50 turn out when Cn1cc(-c2cncc(N[C@H]3CCc4c(Nc5ncc(C(C)(C)C)s5)cccc43)c2)cn1 [Compound 42m] was run?
A: Its pIC50 is 6.70 to 7.30.

Q: Cn1cc(-c2cncc(N[C@H]3CCc4c(Nc5cc(C(C)(C)C)no5)cccc43)c2)cn1 [Compound 42n] was tested. Which pIC50 did it give?
A: The pIC50 was 6.70 to 7.30.

Q: Cn1cc(-c2cncc(N[C@H]3CCc4c(Nc5cc(C(C)(C)C(F)(F)F)on5)cccc43)c2)cn1 [Compound 42p] was tested. Which pIC50 did it give?
A: Its pIC50 is > 7.30.

Q: How did the pIC50 turn out when Cn1cc(-c2cncc(N[C@H]3CCc4c(Nc5cc(C(F)(F)F)nn5C)cccc43)c2)cn1 [Compound 42q] was run?
A: The pIC50 was < 6.30.

Q: With Cn1cc(-c2cncc(N[C@H]3CCc4c(Nc5cc(-c6ccccc6)on5)cccc43)c2)cn1 [Compound 42r] as the compound, how does the pIC50 read?
A: Its pIC50 is 6.70 to 7.30.

Q: With Cn1cc(-c2cncc(N[C@H]3CCc4c(Nc5cc(C(C)(C)C)on5)ccc(F)c43)c2)cn1 [Compound 42s] as the compound, how does the pIC50 read?
A: Its pIC50 is > 7.30.

Q: How did the pIC50 turn out when Cn1cc(-c2cncc(N[C@H]3CCc4c(Nc5nc(C(C)(C)C)cs5)ccc(F)c43)c2)cn1 [Compound 42t] was run?
A: The pIC50 was 6.70 to 7.30.

Q: How did the pIC50 turn out when Cc1cccc(C(=O)Nc2cc(F)cc3c2CCC3Nc2cncc(-c3cnn(C)c3)c2)c1 (stereo not drawn) [Compound 44a] was run?
A: Its pIC50 is 6.70 to 7.30.

Q: How did the pIC50 turn out when Cc1cccc(C(=O)Nc2ccc(F)c3c2CCC3Nc2cncc(-c3cnn(C)c3)c2)c1 (stereo not drawn) [Compound 44b] was run?
A: Its pIC50 is > 7.30.

Q: How did the pIC50 turn out when Cc1cccc(C(=O)Nc2cccc3c2CC(F)C3Nc2cncc(-c3cnn(C)c3)c2)c1 (stereo not drawn) [Compound 44c] was run?
A: Its pIC50 is 6.70 to 7.30.

Q: How did the pIC50 turn out when Cn1cc(-c2cncc(NC3CCc4c(NC(=O)c5cccc(C6CC6)c5)ccnc43)c2)cn1 (stereo not drawn) [Compound 44e] was run?
A: The pIC50 was 6.30 to 6.70.

Q: Cc1cccc(C(=O)Nc2ccc(F)c3c2CC[C@@H]3Nc2cncc(-c3cnn(C)c3)c2)c1 [Compound 45, (S)—N-(7-fluoro-1-((5-(1-methyl-1H-pyrazol-4-yl)pyridin-3-yl)amino)-2,3-dihydro-1H-inden-4-yl)-3-methylbenzamide] was tested. Which pIC50 did it give?
A: Its pIC50 is > 7.30.

Q: Cc1cccc(C(=O)Nc2cc(F)cc3c2CC[C@@H]3Nc2cncc(-c3cnn(C)c3)c2)c1 [Compound 46a] was tested. Which pIC50 did it give?
A: Its pIC50 is > 7.30.

Q: Cc1cccc(C(=O)Nc2c(F)ccc3c2CC[C@@H]3Nc2cncc(-c3cnn(C)c3)c2)c1 [Compound 46b] was tested. Which pIC50 did it give?
A: The pIC50 was 6.70 to 7.30.

Q: How did the pIC50 turn out when Cn1cc(-c2cncc(N[C@H]3CCc4c(NC(=O)c5cccc(C6CC6)c5)ccc(F)c43)c2)cn1 [Compound 46c] was run?
A: The pIC50 was > 7.30.

Q: How did the pIC50 turn out when Cn1cc(-c2cncc(N[C@H]3CCc4c(NC(=O)c5cccc(C(F)(F)F)c5)ccc(F)c43)c2)cn1 [Compound 46d] was run?
A: The pIC50 was > 7.30.

Q: With Cn1cc(-c2cncc(NC3COc4c(NC(=O)c5ccc(C(F)(F)F)cc5)cccc43)c2)cn1 (stereo not drawn) [Compound 47, N-(3-((5-(1-methyl-1H-pyrazol-4-yl)pyridin-3-yl)amino)-2,3-dihydrobenzofuran-7-yl)-4-(trifluoromethyl)benzamide] as the compound, how does the pIC50 read?
A: The pIC50 was 6.70 to 7.30.

Q: How did the pIC50 turn out when Cn1cc(-c2cncc(NC3CCc4c(Nc5cc(C(C)(C)C)on5)cccc43)c2)cn1 (stereo not drawn) [Compound 48, N^4-(5-(tert-butyl)isoxazol-3-yl)-N^1-(5-(1-methyl-1H-pyrazol-4-yl)pyridin-3-yl)-2,3-dihydro-1H-indene-1,4-diamine] was run?
A: The pIC50 was > 7.30.

Q: How did the pIC50 turn out when CN(c1cncc(-c2cnn(C)c2)c1)[C@H]1CCc2c(Nc3cc(C(C)(C)C)on3)cccc21 [Compound 49, (S)—N^4-(5-(tert-butyl)isoxazol-3-yl)-N^1-methyl-N1-(5-(1-methyl-1H-pyrazol-4-yl)pyridin-3-yl)-2,3-dihydro-1H-indene-1,4-diamine] was run?
A: The pIC50 was < 6.30.

Q: With Cn1cc(-c2cncc(N[C@H]3CCc4c(C(=O)Nc5cccc(C6CC6)c5)ccc(F)c43)c2)cn1 [Compound 50, (S)—N-(3-cyclopropylphenyl)-7-fluoro-1-((5-(1-methyl-1H-pyrazol-4-yl)pyridin-3-yl)amino)-2,3-dihydro-1H-indene-4-carboxamide] as the compound, how does the pIC50 read?
A: Its pIC50 is > 7.30.

Q: How did the pIC50 turn out when Cn1cc(-c2cncc(N[C@H]3CCc4c3ccc(F)c4C(=O)Nc3cccc(C4CC4)c3)c2)cn1 [Compound 51a] was run?
A: Its pIC50 is > 7.30.

Q: Cn1cc(-c2cncc(N[C@H]3CCc4c(C(=O)Nc5cccc(C6CC6)c5)cc(F)cc43)c2)cn1 [Compound 51b] was tested. Which pIC50 did it give?
A: Its pIC50 is > 7.30.

Q: With CN(c1cncc(-c2cnn(C)c2)c1)[C@H]1CCc2c(C(=O)Nc3cccc(C4CC4)c3)cc(F)cc21 [Compound 52, (S)—N-(3-cyclopropylphenyl)-6-fluoro-1-(methyl (5-(1-methyl-1H-pyrazol-4-yl)pyridin-3-yl)amino)-2,3-dihydro-1H-indene-4-carboxamide] as the compound, how does the pIC50 read?
A: The pIC50 was > 7.30.

Q: How did the pIC50 turn out when Cn1cc(-c2cncc(O[C@H]3CCc4c3ccc(F)c4C(=O)Nc3cccc(C4CC4)c3)c2)cn1 [Compound 53, (S)—N-(3-cyclopropylphenyl)-5-fluoro-1-((5-(1-methyl-1H-pyrazol-4-yl)pyridin-3-yl)oxy)-2,3-dihydro-1H-indene-4-carboxamide] was run?
A: Its pIC50 is 6.70 to 7.30.

Q: With Cn1cc(-c2cncc(N[C@H]3CCc4c(C(=O)Nc5cccc(C6CC6)c5)ccnc43)c2)cn1 [Compound 55, (S)—N-(3-cyclopropylphenyl)-7-((5-(1-methyl-1H-pyrazol-4-yl)pyridin-3-yl)amino)-6,7-dihydro-5H-cyclopenta[b]pyridine-4-carboxamide] as the compound, how does the pIC50 read?
A: The pIC50 was 6.30 to 6.70.

Q: How did the pIC50 turn out when Cn1cc(-c2cc(O[C@H]3CCc4c(C(=O)Nc5ccc(C(F)(F)F)cc5)cccc43)ccn2)cn1 [Compound 56, (S)-1-((2-(1-methyl-1H-pyrazol-4-yl)pyridin-4-yl)oxy)-N-(4-(trifluoromethyl)phenyl)-2,3-dihydro-1H-indene-4-carboxamide] was run?
A: Its pIC50 is < 6.30.

Q: With Cn1cc(-c2cc(N[C@H]3CCc4c(C(=O)Nc5cccc(C6CC6)c5)cccc43)ccn2)cn1 [Compound 57, (S)—N-(3-cyclopropylphenyl)-1-((2-(1-methyl-1H-pyrazol-4-yl)pyridin-4-yl)amino)-2,3-dihydro-1H-indene-4-carboxamide] as the compound, how does the pIC50 read?
A: The pIC50 was < 6.30.

Q: Cn1cc(-c2cncc(N[C@H]3CCc4c(CNc5ccc(C(F)(F)F)cc5)cccc43)c2)cn1 [Compound 58, (S)-5-(1-methyl-1H-pyrazol-4-yl)-N-(4-(((4-(trifluoromethyl)phenyl)amino)methyl)-2,3-dihydro-1H-inden-1-yl) pyridin-3-amine] was tested. Which pIC50 did it give?
A: Its pIC50 is < 6.30.

Q: How did the pIC50 turn out when COc1ccc(NCc2cccc3c2CC[C@@H]3Nc2cncc(-c3cnn(C)c3)c2)cc1 [Compound 59a] was run?
A: The pIC50 was 6.30 to 6.70.

Q: How did the pIC50 turn out when Cn1cc(-c2cncc(N[C@H]3CCc4c(CNc5cccc(C6CC6)c5)cccc43)c2)cn1 [Compound 59b] was run?
A: Its pIC50 is 6.30 to 6.70.

Q: With Cn1cc(-c2cncc(N[C@H]3CCc4c(CNc5cccc(C(F)(F)F)c5)cccc43)c2)cn1 [Compound 59c] as the compound, how does the pIC50 read?
A: Its pIC50 is < 6.30.

Q: Cc1cccc(NCc2cccc3c2CC[C@@H]3Nc2cncc(-c3cnn(C)c3)n2)c1 [Compound 59d] was tested. Which pIC50 did it give?
A: Its pIC50 is 6.30 to 6.70.

Q: With Cn1cc(-c2cncc(N[C@H]3CCc4c(CNc5ccccc5F)cccc43)n2)cn1 [Compound 59e] as the compound, how does the pIC50 read?
A: The pIC50 was < 6.30.

Q: With Cn1cc(-c2cncc(N[C@H]3CCc4c(CNC5CCCCC5)cccc43)n2)cn1 [Compound 59f] as the compound, how does the pIC50 read?
A: Its pIC50 is < 6.30.

Q: Cn1cc(-c2cncc(N[C@H]3CCc4c(NC5CCCCC5)cccc43)n2)cn1 [Compound 60a] was tested. Which pIC50 did it give?
A: The pIC50 was < 6.30.

Q: With Cn1cc(-c2cncc(N[C@H]3CCc4c(NCC5CCCCC5)cccc43)n2)cn1 [Compound 60b] as the compound, how does the pIC50 read?
A: Its pIC50 is < 6.30.

Q: How did the pIC50 turn out when Cn1cc(-c2cncc(N[C@H]3CCc4c(NCc5cccc(Cl)c5)cccc43)n2)cn1 [Compound 60c] was run?
A: Its pIC50 is < 6.30.

Q: With Cn1cc(-c2cncc(N[C@H]3CCc4c(NCc5cccc(F)c5)cccc43)n2)cn1 [Compound 60d] as the compound, how does the pIC50 read?
A: The pIC50 was < 6.30.

Q: Cc1cncc(CNc2cccc3c2CC[C@@H]3Nc2cncc(-c3cnn(C)c3)n2)c1 [Compound 60e] was tested. Which pIC50 did it give?
A: The pIC50 was < 6.30.

Q: Cn1cc(-c2cncc(N[C@H]3CCc4c(NC(c5cccc(Cl)c5)C(F)(F)F)cccc43)n2)cn1 (stereo partly drawn) [Compound 61, (1S)—N^4-(1-(3-chlorophenyl)-2,2,2-trifluoroethyl)-N1-(6-(1-methyl-1H-pyrazol-4-yl)pyrazin-2-yl)-2,3-dihydro-1H-indene-1,4-diamine] was tested. Which pIC50 did it give?
A: Its pIC50 is < 6.30.

Q: With Cn1cc(-c2cncc(N[C@H]3CCc4c(C(=O)OC5CCCCC5)cccc43)n2)cn1 [Compound 62, cyclohexyl(S)-1-((6-(1-methyl-1H-pyrazol-4-yl)pyrazin-2-yl)amino)-2,3-dihydro-1H-indene-4-carboxylate] as the compound, how does the pIC50 read?
A: Its pIC50 is < 6.30.

Q: How did the pIC50 turn out when Cn1cc(-c2cncc(N[C@H]3CCc4c(NC5(c6ccccc6)COC5)cccc43)c2)cn1 [Compound 63, (S)—N^1-(5-(1-methyl-1H-pyrazol-4-yl)pyridin-3-yl)-N^4-(3-phenyloxetan-3-yl)-2,3-dihydro-1H-indene-1,4-diamine] was run?
A: The pIC50 was < 6.30.

Q: Cn1cc(-c2cncc(N[C@H]3CCc4c(NC(=O)N5CCC(C)(C)C5=O)cccc43)n2)cn1 [Compound 64, (S)-3,3-dimethyl-N-(1-((6-(1-methyl-1H-pyrazol-4-yl)pyrazin-2-yl)amino)-2,3-dihydro-1H-inden-4-yl)-2-oxopyrrolidine-1-carboxamide] was tested. Which pIC50 did it give?
A: Its pIC50 is 6.30 to 6.70.

Q: How did the pIC50 turn out when Cn1cc(-c2cncc(N[C@H]3CCc4c(NC(=O)NC5CCCCC5)cccc43)n2)cn1 [Compound 65a] was run?
A: The pIC50 was > 7.30.

Q: How did the pIC50 turn out when Cn1cc(-c2cncc(N[C@H]3CCc4c(NC(=O)NC5CCC(F)(F)CC5)cccc43)n2)cn1 [Compound 65b] was run?
A: The pIC50 was 6.70 to 7.30.

Q: Cn1cc(-c2cncc(N[C@H]3CCc4c(NC(=O)OC5CCCCC5)cccc43)n2)cn1 [Compound 65c] was tested. Which pIC50 did it give?
A: Its pIC50 is > 7.30.

Q: With Cn1cc(-c2cncc(N[C@H]3CCc4c(NC(=O)NCC5CC5)cccc43)n2)cn1 [Compound 65d] as the compound, how does the pIC50 read?
A: The pIC50 was < 6.30.

Q: How did the pIC50 turn out when Cn1cc(-c2cncc(N[C@H]3CCc4c(NC(=O)Nc5ccccc5F)cccc43)n2)cn1 [Compound 65e] was run?
A: Its pIC50 is > 7.30.

Q: With Cn1cc(-c2cnc(N)c(O[C@H]3CCc4c(Nc5cc(C(C)(C)C)on5)cccc43)c2)cn1 [Compound 67, (S)—N-(1-((2-amino-5-(1-methyl-1H-pyrazol-4-yl)pyridin-3-yl)oxy)-2,3-dihydro-1H-inden-4-yl)-5-(tert-butyl) isoxazol-3-amine] as the compound, how does the pIC50 read?
A: The pIC50 was > 7.30.

Q: How did the pIC50 turn out when Cn1cc(-c2cnc(N)c(O[C@H]3CCc4c(Nc5cc(C(C)(C)C)on5)cccc43)c2)cn1 [Compound 68, (S)—N-(1-((2-amino-5-(1-methyl-1H-pyrazol-4-yl)pyridin-3-yl)oxy)-2,3-dihydro-1H-inden-4-yl)-5-(tert-butyl) isoxazol-3-amine] was run?
A: Its pIC50 is 6.30 to 6.70.
